Measured values taken from publication PMC7600264, “Quasi-Irreversible Inhibition of CYP2D6 by Berberine” (Pharmaceutics, 2020).
Read-outs that look alike come from different tables or passages of the source.

Experiments:
[1] = molecular target: CYP2C9 (Homo sapiens, UniProt P11712); test: Direct CYP inhibition assay using pooled HLM; conditions: pooled HLM
Description: (§1) The enzyme reactions were initiated by adding NADPH (1 mM), and the mixtures were incubated at 37 °C for 5 min in a shaking water bath (100 rpm). The reaction was terminated by adding ice-cold acetonitrile (ACN) containing CBZ (100 nM) and 4-methyl-umbelliferone (300 nM) as internal standards (IS).
(§2) The chromatographic separation was performed on an Agilent 1200 series HPLC system (Agilent Technologies, Santa Clara, CA, USA) equipped with an Atlantis^TM dC18 column (2.1 × 50 mm, 3 µm; Waters Corporation, Milford, MA, USA) with a SecuityGuard^TM C18 guard column (2.0 × 4.0 mm; Phenomenex, Torrance, CA, USA). The mobile phases consisted of double-deionized water (DDW) containing 0.1% (v/v) of formic acid (A) and ACN containing 0.1% (v/v) formic acid (B). […] The sample injection volume was 10 µL, and the total run time was 9.0 min. The column and auto-sampler compartments were maintained at 30 °C and 10 °C, respectively, throughout the analysis. The detection was performed using an API4000 Q-TRAP system equipped with a Turbo V Ion Spray^TM source (Applied Biosystems, Foster City, CA, USA). The operating conditions were optimized as follows: ionization voltage: 5500 V for positive-ion mode and −4500 V for negative-ion mode; ion source temperature: 550 °C; nebulizing gas flow: 50 L/min; auxiliary gas flow: 40 L/min; and curtain gas flow: 30 L/min. The samples were analyzed via multiple reaction monitoring (MRM) mode. […] The data acquisition and processing were performed using Analyst^TM software (version 1.5.2; Applied Biosystems, Foster City, CA, USA).

[2] = molecular target: T1, CYP2D6 (Homo sapiens, UniProt P10635); test: Metabolism-dependent CYP2D6 inhibition assay (IC50 shift) using pooled HLM; conditions: pooled HLM; for MDI (metabolism-dependent inhibition) of CYP2D6 (in words): pre-incubation with NADPH
Description: Pre-incubation was performed in pooled HLM (0.2 mg/mL) added with BBR, THB, TFD, or DMB, or rhCYP2D6 (10 pmol/mL) added with BBR, with or without NADPH (1 mM) in phosphate buffer (0.1 M; pH 7.4) for 30 min. Then, the CYP2D6 substrate (5 µM of dextromethorphan) and NADPH (1 mM) were added to the mixture and incubated for another 10 min. All incubations were carried out at 37 °C in a shaking water bath (100 rpm) using eight-well tube strips placed in an 8 × 12 rack, where the final volume of each reaction mixture was 200 µL. […] The enzyme reactions were quenched by adding an aliquot (200 µL) of ice-cold ACN containing CBZ (100 nM) as an IS. The samples were centrifuged, and the concentration of CYP2D6 metabolite (i.e., dextrorphan, produced by O-demethylation of dextromethorphan) in supernatants were analyzed using the LC-MS/MS method described in Section 2.2.

[3] = Metabolic stability and metabolite formation of BBR in pooled HLM; conditions: for Concentration in incubation mixture (elimination of BBR and formation of its metabolites): BBR 1 µM in pooled HLM with NADPH-generating system, mean ± SD
Description: To evaluate NADPH-dependent metabolism, BBR (1 µM) was incubated with pooled HLM (1 mg/mL) in the presence of the NADPH-regenerating system (1 mM of NADP^+, 5 mM of G6P, and 1 U/mL of G6PDH) to be a final volume of 200 µL. The reactions were quenched by adding the same volume of ice-cold ACN containing CBZ (100 nM) at 0, 7.5, 15, 30, 60, and 120 min of incubation. The incubation mixtures were centrifuged at 1000× g for 20 min at 4 °C, and the supernatants were analyzed by the LC-MS/MS system described in Section 2.2.
Meanwhile, to identify the known metabolites of BBR, an aliquot (5 µL) of the supernatant was injected into an accurate-MS system consisting of an Agilent 6530 Q-TOF LC/MS equipped with dual AJS ESI ion source (Agilent Technologies) and Agilent 1200 series HPLC system (Agilent Technologies). Chromatographic separations were performed on an Agilent Eclipse Plus C18 column (150 × 2.1 mm, 3.5 µm; Agilent Technologies) by gradient elution with a binary mobile phase consisting of DDW with 0.1% (v/v) formic acid (A) and ACN with 0.1% (v/v) formic acid (B) at a flow rate of 0.2 mL/min, where the mobile phase B was set as follows: 2% at 0 min, 20% at 15 min, and 30% at 20–25 min, followed by re-equilibration for 3 min.
In vitro metabolic stability parameters, including half-life (t1/2) and microsomal intrinsic clearance (CLint,mic), were determined according to our previous report [32]. The degradation t1/2 values of the microsomal stability studies were calculated using the following Equation (2):(2) t1/2=0.693/k, where k represents the first-order degradation rate constant. The k values were estimated by fitting a one-phase exponential decay model to the parent drug remaining (%) vs. incubation time plots using GraphPad Prism 5.0 (GraphPad Software Inc., San Diego, CA, USA).
The CLint,mic was determined using the in vitro half-life approach.

[4] = molecular target: T2, CYP2C8 (Homo sapiens, UniProt P10632); test: Direct CYP inhibition assay using pooled HLM; conditions: pooled HLM
T2 sequence (P10632 1-490): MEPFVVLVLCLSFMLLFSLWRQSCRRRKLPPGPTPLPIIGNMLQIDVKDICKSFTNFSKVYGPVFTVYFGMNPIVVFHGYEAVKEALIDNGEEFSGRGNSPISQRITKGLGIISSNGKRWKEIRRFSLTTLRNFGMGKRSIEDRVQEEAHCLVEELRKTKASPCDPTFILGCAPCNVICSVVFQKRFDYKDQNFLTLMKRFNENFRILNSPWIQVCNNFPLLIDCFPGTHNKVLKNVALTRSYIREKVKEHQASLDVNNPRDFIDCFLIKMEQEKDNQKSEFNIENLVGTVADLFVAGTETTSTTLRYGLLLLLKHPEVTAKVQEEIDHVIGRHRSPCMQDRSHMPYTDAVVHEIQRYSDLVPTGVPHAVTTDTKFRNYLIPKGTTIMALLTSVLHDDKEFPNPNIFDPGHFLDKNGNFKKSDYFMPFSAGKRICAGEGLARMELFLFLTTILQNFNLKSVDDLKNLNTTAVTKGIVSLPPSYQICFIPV
Description: as §1, §2

[5] = molecular target: CYP2E1 (Homo sapiens, UniProt P05181); test: Direct CYP inhibition assay using pooled HLM; conditions: pooled HLM
Description: as §1, §2

[6] = molecular target: T1, CYP2D6; test: Direct CYP inhibition assay using pooled HLM
Description: as §1, §2

[7] = molecular target: CYP3A4 (Homo sapiens, UniProt P08684); test: Direct CYP inhibition assay using pooled HLM
Description: as §1, §2

[8] = molecular target: CYP2C19 (Homo sapiens, UniProt P33261); test: Direct CYP inhibition assay using pooled HLM; conditions: pooled HLM
Description: as §1, §2

[9] = molecular target: T3, CYP1A2 (Homo sapiens, UniProt P05177); test: Direct CYP inhibition assay using pooled HLM; conditions: pooled HLM
T3 sequence (P05177 1-516): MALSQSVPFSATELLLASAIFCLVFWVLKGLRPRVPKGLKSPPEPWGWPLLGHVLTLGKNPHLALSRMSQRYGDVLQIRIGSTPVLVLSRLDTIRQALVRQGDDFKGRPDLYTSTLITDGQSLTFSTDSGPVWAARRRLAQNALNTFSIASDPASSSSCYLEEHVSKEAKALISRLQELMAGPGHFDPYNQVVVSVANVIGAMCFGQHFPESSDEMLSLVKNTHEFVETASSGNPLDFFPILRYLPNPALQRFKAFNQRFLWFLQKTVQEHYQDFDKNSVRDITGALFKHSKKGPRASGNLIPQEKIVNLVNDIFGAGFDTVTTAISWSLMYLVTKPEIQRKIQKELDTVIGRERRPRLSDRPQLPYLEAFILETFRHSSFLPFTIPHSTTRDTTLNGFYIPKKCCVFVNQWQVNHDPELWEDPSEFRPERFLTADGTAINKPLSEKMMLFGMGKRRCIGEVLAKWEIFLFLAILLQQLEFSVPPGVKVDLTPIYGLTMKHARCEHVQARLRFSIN
Description: as §1, §2

[10] = molecular target: T4, CYP2B6 (Homo sapiens, UniProt P20813); test: Direct CYP inhibition assay using pooled HLM; conditions: pooled HLM
T4 sequence (P20813 1-491): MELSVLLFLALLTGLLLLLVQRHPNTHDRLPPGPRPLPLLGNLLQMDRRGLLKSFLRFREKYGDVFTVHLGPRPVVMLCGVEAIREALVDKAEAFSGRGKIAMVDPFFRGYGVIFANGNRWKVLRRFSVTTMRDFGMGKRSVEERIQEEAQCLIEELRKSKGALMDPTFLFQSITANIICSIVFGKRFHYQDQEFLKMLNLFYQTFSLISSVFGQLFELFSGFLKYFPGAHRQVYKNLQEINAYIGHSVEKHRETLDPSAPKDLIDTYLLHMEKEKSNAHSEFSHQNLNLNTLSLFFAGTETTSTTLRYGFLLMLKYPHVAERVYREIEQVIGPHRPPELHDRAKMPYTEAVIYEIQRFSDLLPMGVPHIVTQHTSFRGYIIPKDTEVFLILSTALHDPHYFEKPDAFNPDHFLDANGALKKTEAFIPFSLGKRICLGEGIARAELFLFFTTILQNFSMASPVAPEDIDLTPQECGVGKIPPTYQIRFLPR
Description: as §1, §2

[11] = molecular target: T5, CYP2A6 (Homo sapiens, UniProt P11509); test: Direct CYP inhibition assay using pooled HLM; conditions: pooled HLM
T5 sequence (P11509 1-494): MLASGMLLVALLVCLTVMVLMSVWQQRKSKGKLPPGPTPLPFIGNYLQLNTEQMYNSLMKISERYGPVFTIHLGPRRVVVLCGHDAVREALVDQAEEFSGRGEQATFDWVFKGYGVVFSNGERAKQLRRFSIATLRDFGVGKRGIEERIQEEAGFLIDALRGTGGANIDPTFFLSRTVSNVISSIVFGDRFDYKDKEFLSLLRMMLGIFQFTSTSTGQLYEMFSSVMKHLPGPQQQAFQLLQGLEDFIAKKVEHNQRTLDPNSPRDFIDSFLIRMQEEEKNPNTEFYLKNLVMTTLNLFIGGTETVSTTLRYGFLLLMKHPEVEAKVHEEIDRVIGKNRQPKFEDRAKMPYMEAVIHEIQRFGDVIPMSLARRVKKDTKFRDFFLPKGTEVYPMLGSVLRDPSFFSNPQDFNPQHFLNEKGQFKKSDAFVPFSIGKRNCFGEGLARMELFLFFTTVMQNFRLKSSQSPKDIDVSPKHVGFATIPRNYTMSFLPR
Description: as §1, §2

[12] = human, pooled human liver microsomes

T1 sequence (P10635 whole entry): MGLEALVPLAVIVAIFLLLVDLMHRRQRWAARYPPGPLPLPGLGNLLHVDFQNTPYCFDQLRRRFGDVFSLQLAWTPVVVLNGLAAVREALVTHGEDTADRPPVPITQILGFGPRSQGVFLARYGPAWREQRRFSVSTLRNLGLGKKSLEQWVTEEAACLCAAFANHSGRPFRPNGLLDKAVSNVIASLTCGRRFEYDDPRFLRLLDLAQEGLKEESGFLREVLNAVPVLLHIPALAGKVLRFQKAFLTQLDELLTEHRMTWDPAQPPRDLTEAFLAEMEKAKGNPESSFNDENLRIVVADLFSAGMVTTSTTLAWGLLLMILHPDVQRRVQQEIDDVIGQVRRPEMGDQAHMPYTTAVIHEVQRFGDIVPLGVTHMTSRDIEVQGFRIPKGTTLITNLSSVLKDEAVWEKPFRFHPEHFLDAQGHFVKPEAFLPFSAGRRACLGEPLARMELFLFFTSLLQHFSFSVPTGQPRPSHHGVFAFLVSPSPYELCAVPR
Chain of CYP3A4 (P08684 whole entry): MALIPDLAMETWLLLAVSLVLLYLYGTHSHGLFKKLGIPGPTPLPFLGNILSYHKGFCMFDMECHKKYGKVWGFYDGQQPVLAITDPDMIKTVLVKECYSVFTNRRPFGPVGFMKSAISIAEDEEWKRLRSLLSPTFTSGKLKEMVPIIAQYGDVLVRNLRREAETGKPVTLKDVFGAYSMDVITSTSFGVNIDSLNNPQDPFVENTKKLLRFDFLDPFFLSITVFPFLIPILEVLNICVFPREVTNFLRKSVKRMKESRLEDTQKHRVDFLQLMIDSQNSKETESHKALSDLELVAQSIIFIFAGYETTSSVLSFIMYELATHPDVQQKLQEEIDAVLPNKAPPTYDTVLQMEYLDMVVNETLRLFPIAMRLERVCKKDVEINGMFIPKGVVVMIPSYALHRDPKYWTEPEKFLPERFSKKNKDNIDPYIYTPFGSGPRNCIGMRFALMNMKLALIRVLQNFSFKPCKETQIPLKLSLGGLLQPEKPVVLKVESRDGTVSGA
Chain of CYP2C19 (P33261 whole entry): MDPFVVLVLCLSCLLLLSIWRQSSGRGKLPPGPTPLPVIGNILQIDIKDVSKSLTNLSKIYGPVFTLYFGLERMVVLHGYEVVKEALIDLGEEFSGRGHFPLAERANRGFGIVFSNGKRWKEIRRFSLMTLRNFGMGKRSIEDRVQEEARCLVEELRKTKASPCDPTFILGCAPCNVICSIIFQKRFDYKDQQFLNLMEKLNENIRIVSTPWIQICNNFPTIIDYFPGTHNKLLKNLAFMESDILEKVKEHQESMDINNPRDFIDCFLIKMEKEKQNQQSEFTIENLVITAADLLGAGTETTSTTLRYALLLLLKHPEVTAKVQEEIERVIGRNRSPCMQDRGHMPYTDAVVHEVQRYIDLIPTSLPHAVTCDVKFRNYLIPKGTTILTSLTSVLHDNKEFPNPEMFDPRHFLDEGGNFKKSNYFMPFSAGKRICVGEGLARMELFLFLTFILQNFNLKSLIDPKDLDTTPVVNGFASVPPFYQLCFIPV
Chain of CYP2C9 (P11712 whole entry): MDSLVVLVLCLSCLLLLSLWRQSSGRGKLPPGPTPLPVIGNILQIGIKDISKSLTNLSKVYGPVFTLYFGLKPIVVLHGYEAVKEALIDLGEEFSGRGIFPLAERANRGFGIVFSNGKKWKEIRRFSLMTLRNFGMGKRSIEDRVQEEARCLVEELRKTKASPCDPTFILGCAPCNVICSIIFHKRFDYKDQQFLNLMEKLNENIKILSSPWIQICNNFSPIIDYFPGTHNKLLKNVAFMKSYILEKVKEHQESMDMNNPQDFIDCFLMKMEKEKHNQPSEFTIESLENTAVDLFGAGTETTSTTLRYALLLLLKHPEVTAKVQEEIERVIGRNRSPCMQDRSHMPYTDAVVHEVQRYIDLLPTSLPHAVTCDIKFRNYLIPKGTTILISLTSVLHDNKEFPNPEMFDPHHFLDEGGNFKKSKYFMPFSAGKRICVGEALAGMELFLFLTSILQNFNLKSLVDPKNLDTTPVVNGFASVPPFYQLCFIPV
Chain of CYP2E1 (P05181 whole entry): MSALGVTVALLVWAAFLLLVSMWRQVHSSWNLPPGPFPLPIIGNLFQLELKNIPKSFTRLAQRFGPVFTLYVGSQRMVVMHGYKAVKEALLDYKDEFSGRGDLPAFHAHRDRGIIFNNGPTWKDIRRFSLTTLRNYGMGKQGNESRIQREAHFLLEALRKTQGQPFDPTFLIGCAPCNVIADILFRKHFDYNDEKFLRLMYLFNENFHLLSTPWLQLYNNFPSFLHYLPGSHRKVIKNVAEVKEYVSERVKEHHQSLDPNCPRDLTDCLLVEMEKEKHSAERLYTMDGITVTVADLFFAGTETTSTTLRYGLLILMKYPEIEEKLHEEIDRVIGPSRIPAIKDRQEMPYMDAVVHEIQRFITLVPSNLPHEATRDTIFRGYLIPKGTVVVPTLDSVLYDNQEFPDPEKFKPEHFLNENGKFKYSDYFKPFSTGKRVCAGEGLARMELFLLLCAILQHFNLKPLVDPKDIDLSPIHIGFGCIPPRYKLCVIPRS

SMILES: COc1ccc2cc3[n+](cc2c1OC)CCc1cc2c(cc1-3)OCO2 [BBR, berberine]
- Inhibition of CYP2C9 (in words) ([1]; up to 100 µM): not markedly inhibited
- IC50 ([2]; IC50 against CYP2D6, pre-incubation with NADPH, 30 min pre-incubation with NADPH): 1.66 µM
- IC50 ([2]; IC50 against CYP2D6, pre-incubation without NADPH, 30 min pre-incubation without NADPH): 12.4 µM
- MDI (metabolism-dependent inhibition) of CYP2D6 (in words) [2]: exhibited MDI
- Concentration in incubation mixture (elimination of BBR and formation of its metabolites) ([3]; 0 min): 1049 ± 16 nM
- Concentration in incubation mixture (elimination of BBR and formation of its metabolites) ([3]; 7.5 min): 807 ± 11 nM
- Concentration in incubation mixture (elimination of BBR and formation of its metabolites) ([3]; 15 min): 713 ± 12 nM
- Concentration in incubation mixture (elimination of BBR and formation of its metabolites) ([3]; 30 min): 539 ± 4 nM
- Concentration in incubation mixture (elimination of BBR and formation of its metabolites) ([3]; 60 min): 313 ± 15 nM
- Concentration in incubation mixture (elimination of BBR and formation of its metabolites) ([3]; 120 min): 147 ± 5 nM
- half-life at 1 µM [3, 12]: 35.4 min
- microsomal CLint at 1 µM [3, 12]: 7.82 µL/min/mg
- Metabolic stability in HLM (in words) ([3]; pooled HLM): moderately stable
- Inhibition of CYP2C8 (in words) ([4]; up to 100 µM): not markedly inhibited
- Inhibition of CYP2E1 (in words) ([5]; up to 100 µM): not markedly inhibited
- IC50 [6]: 11.9 µM
- Inhibition of CYP3A4 (in words) ([7]; up to 100 µM, substrates MDZ and TST): not markedly inhibited
- Inhibition of CYP2C19 (in words) ([8]; up to 100 µM): not markedly inhibited
- Inhibition of CYP1A2 (in words) ([9]; up to 100 µM): not markedly inhibited
- Inhibition of CYP2B6 (in words) ([10]; up to 100 µM): not markedly inhibited
- Inhibition of CYP2A6 (in words) ([11]; up to 100 µM): not markedly inhibited

SMILES: COc1ccc2cc3[n+](cc2c1OC)CCc1cc(O)c(O)cc1-3 [DMB, demethyleneberberine]
- IC50 ([1]; read-out: IC50 CYP2C9, direct inhibition, 95% confidence intervals in parentheses): > 100 µM
- MDI (metabolism-dependent inhibition) of CYP2D6 (in words) [2]: not
- IC50 ([2]; read-out: IC50 against CYP2D6, pre-incubation with NADPH, 30 min pre-incubation with NADPH): 54.9 µM
- IC50 ([2]; read-out: IC50 against CYP2D6, pre-incubation without NADPH, 30 min pre-incubation without NADPH): 34.7 µM
- Concentration in incubation mixture (elimination of BBR and formation of its metabolites) ([3]; 0 min): 6.1 ± 0.1 nM
- Concentration in incubation mixture (elimination of BBR and formation of its metabolites) ([3]; 7.5 min): 24.1 ± 0.3 nM
- Concentration in incubation mixture (elimination of BBR and formation of its metabolites) ([3]; 15 min): 38.1 ± 0.5 nM
- Concentration in incubation mixture (elimination of BBR and formation of its metabolites) ([3]; 30 min): 52.6 ± 1.9 nM
- Concentration in incubation mixture (elimination of BBR and formation of its metabolites) ([3]; 60 min): 64.3 ± 1.6 nM
- Concentration in incubation mixture (elimination of BBR and formation of its metabolites) ([3]; 120 min): 75.0 ± 1.0 nM
- IC50 ([4]; read-out: IC50 CYP2C8, direct inhibition, 95% confidence intervals in parentheses): > 100 µM
- IC50 ([5]; read-out: IC50 CYP2E1, direct inhibition, 95% confidence intervals in parentheses): 7.7 µM
- IC50 ([6]; read-out: IC50 CYP2D6, pooled HLM, direct inhibition, substrate dextromethorphan, 95% confidence intervals in parentheses): 32 µM
- IC50 ([7]; read-out: IC50 CYP3A4 (MDZ), direct inhibition, substrate MDZ, 95% confidence intervals in parentheses): 66 µM
- IC50 ([7]; read-out: IC50 CYP3A4 (TST), direct inhibition, substrate TST, 95% confidence intervals in parentheses): 7.3 µM
- IC50 ([8]; read-out: IC50 CYP2C19, direct inhibition, 95% confidence intervals in parentheses): > 100 µM
- IC50 ([9]; read-out: IC50 CYP1A2, direct inhibition, 95% confidence intervals in parentheses): > 100 µM
- IC50 ([10]; read-out: IC50 CYP2B6, direct inhibition, 95% confidence intervals in parentheses): > 100 µM
- IC50 ([11]; read-out: IC50 CYP2A6, direct inhibition, 95% confidence intervals in parentheses): > 100 µM
